# Experimental data published in patent US20140171438A1, “Hybrid Compounds And Methods Of Making And Using The Same” (CELLCEUTIX CORPORATION, priority 2012, published 2014).
# Like-named read-outs stand apart in the source and are kept apart here.
# Columns and labels:
# [1] = tested on: E. Coli ATCC 25922; test: Antimicrobial activity, MIC, modified microbroth dilution; format: cell-based; settings: Escherichia coli, read-out: MIC (expressed as MIC50) E. coli
# Procedure: (§1) The compounds were screened for antimicrobial activity against a number of ATCC bacterial strains. Minimum Inhibitory Concentrations (MIC) of each of the compounds were determined using standard CLSI procedures modified by Hancock protocol against E. Coli ATCC 25922, Staphylococcus aureus ATCC 27660, Enterococcus faecalis ATCC 29212, Pseudomonas aeruginosa ATCC 10145, and Klebsiella pneumoniae ATCC 13883.
# (§2) This procedure is a modification of the standard microbroth dilution assay recommended by the National Committee for Clinical Laboratory Standards (NCCLS) which has been developed for determining in vitro antimicrobial activities of cationic agents (Steinberg et al., Antimicrob. Agents Chemother., 1997, 41, 1738; and Yan et al., Antimicrob. Agents Chemother., 2001, 45, 1558). The modifications were made to minimize loss of the antimicrobial agent due to adsorption onto glass or plastic surfaces and by precipitation at high concentrations.
# (§3) Three mL of Mueller-Hinton II Broth (cation-adjusted) was inoculated with 5 μL of frozen bacterial stock and incubated at 37° C. on a shaker platform (at 250 rpm) overnight. Compound stock solutions were prepared in DMSO and serial two-fold dilutions of compound were made in 0.01% acetic acid, 0.2% bovine serum albumin directly in the wells of the polypropylene plate at 10 μL/well. […] All samples were performed in duplicate. The overnight bacteria suspension was diluted to approximately 10^6 cfu/mL and inoculated into a polypropylene (Costar) 96-well round bottom plate (90 μL volumes). One set of control wells included broth-only samples with dilution buffer for testing sterility and providing blank values for the assay readings. Vehicle-control wells containing the bacterial suspension with DMSO (no compound) were also included. Following the overnight incubation (18 hours), cell growth was assessed by observing the presence of “acceptable growth”, defined by NCCLS as a ≧2 mm button or definite turbidity.
# (§4) Actual results from a representative MIC assay are shown below in Table 1. Data is expressed as MIC50 in μg/mL. The bacterial isolates were as follows: E. coli (25922); S. aureus (27660); E. faecalis (29212); P. aeruginosa (10145); and K. pneumoniae (13883).
# [2] = tested on: Enterococcus faecalis ATCC 29212; test: as above; format: cell-based; settings: read-out: MIC (expressed as MIC50) E. faecalis
# Procedure: as §1, §2, §3, §4
# [3] = tested on: Klebsiella pneumoniae ATCC 13883; test: as above; format: cell-based; settings: read-out: MIC (expressed as MIC50) K. Pnuemnoiae
# Procedure: as §1, §2, §3, §4
# [4] = tested on: Pseudomonas aeruginosa ATCC 10145; test: as above; format: cell-based; settings: read-out: MIC (expressed as MIC50) P. Aeruginosa
# Procedure: as §1, §2, §3, §4
# [5] = tested on: Staphylococcus aureus ATCC 27660; test: as above; format: cell-based; settings: read-out: MIC (expressed as MIC50) S. aureus
# Procedure: as §1, §2, §3, §4
# [6] = Cytotoxicity, colorimetric tetrazolium assay; format: cell-based; settings: one hour with compound in serum-free media
# Procedure: Cytotoxicity of the compounds was evaluated in a colorimetric assay using a transformed human liver cell line (HepG2, HB-8065) and an embryonic mouse cell line (NIH/3T3 cells, CRL-1658). This assay measures the bioreduction of a novel tetrazolium compound to a soluble formazan product by viable cells. HepG2 cells were seeded in 96 well plates at 2×10^4 cells/well in MEM medium with 10% fetal bovine serum (FBS) for 24 hours prior to use. NIH/3T3 cells were seeded in 96 well plates at 2×10^4 cells/well in DMEM medium with 10% bovine calf serum (BCS) 24 hours prior to use. Cell monolayers were rinsed in serum-free media and incubated for one hour with the compound in serum-free media. After incubation, the media was replaced with serum supplemented media and live cells were measured using the Cell Titer 96 Aqueous […] (Promega, Madison, Wis.). EC50 values were determined using a four parameter logistic equation: Y=Bottom+(Top−Bottom)/(1+10̂((Log EC50−X)*HillSlope)). Actual results from a representative cytotoxicity assay are shown below in Table 2. Data is expressed as EC50 in μg/mL.
# [7] = tested on: MRSA ATCC 33591; test: Anti-biofilm activity, minimum biofilm eradication concentration (MBEC); format: cell-based, Staphylococcus aureus; settings: MRSA ATCC 33591 biofilm on filter paper disks; 24 hours challenge
# Procedure: The in vitro activity against biofilm was carried out by following the protocol for biofilm development and challenge using filter paper disks and 24-well plates. On day one, a tryptic soy agar plate (TSA) was streaked for MRSA isolation. On the second day a single colony of MRSA was grown in about 5 mL of tryptic soy broth (TSB). Filter papers were punched and autoclaved in 96-well plate. On the third day, a single filter paper disk was placed in each well of 24-well plate. The plate was inoculated with 300 μL/well of 0.01 adjusted OD600 bacteria inoculum in TSB supplemented with 1% glucose and 1.6% NaCl. The cells were allowed to grow for 48 hours on a shaker at 37° C. On day five, the challenge plate(s) were made in a 24-well plate(s), using eppendorf tubes to make dilutions and aliquoted into designated wells. The wash plates were filled in each well of a 24-well plate with 500 μL 0.9% saline. The disks were removed with forceps from the growth plate to the wash plate to challenge plate, flaming in between or where needed. Once disks are in challenge plate, incubated for 24 hours on shaker at 37° C. […] On day seven, the colonies were counted.
# The actual MBEC of Compound 113 against MRSA ATCC 33591 was determined to be 32 μg/mL.
# [8] = mouse, NIH/3T3 cells (CRL-1658)
# [9] = ATCC25922, E. coli (25922), 18 hours incubation
# [10] = ATCC29212, E. faecalis (29212), 18 hours incubation
# [11] = ATCC13883, K. pneumoniae (13883), 18 hours incubation
# [12] = ATCC10145, P. aeruginosa (10145), 18 hours incubation
# [13] = ATCC27660, S. aureus (27660), 18 hours incubation
"MIC [1, 9]","MIC [2, 10]","MIC [3, 11]","MIC [4, 12]","MIC [5, 13]","MIC50 [1, 9]","MIC50 [2, 10]","MIC50 [3, 11]","MIC50 [4, 12]","MIC50 [5, 13]",SMILES,"MIC50 ([1]; ATCC25922, 18 h)","MIC50 ([2]; ATCC29212, 18 h)","MIC50 ([3]; ATCC13883, 18 h)","MIC50 ([4]; ATCC10145, 18 h)","MIC50 ([5]; ATCC27660, 18 h)","EC50 at 1 h ([6]; human, HepG2 cells (HB-8065))","EC50 at 1 h [6, 8]",MBEC [7]
–,–,–,–,–,–,–,–,–,–,"N=C(N)NCCCCC(=O)Nc1cc(C(F)(F)F)cc(NC(=O)Nc2ccc(Oc3cc([N+](=O)[O-])cc(C(F)(F)F)c3)cc2)c1O[C@@H]1CCNC1 [Compound 101, [3-[4-[[3-(5-guanidinopentanoylamino)-2-[(3R)-pyrrolidin-3-yl]oxy-5-(trifluoromethyl)phenyl]carbamoylamino]phenoxy]-5-(trifluoromethyl)phenyl]azinic acid]",> 100 µg/mL,100 µg/mL,100 µg/mL,> 100 µg/mL,50 µg/mL,> 1000 µg/mL,> 1000 µg/mL,–
25 µg/mL,25 µg/mL,25 µg/mL,7.5 µg/mL,6.25 µg/mL,–,–,–,–,–,NCC#Cc1cc(-n2ccc3cc([N+](=O)[O-])ccc32)cc(C(F)(F)F)c1 [Compound 115],–,–,–,–,–,74.3 µg/mL,43.3 µg/mL,–
–,–,–,–,–,6.25 µg/mL,1.56 µg/mL,12.5 µg/mL,3.13 µg/mL,1.56 µg/mL,"NCCCc1cc(NC(=O)Nc2ccc(SCCN)c(C(F)(F)F)c2)ccc1Oc1ccc(NCCN)c(C(F)(F)F)c1 [Compound 114, 1-[4-[4-(2-aminoethylamino)-3-(trifluoromethyl)phenoxy]-3-(3-aminopropyl)phenyl]-3-[4-(2-aminoethylsulfanyl)-3-(trifluoromethyl)phenyl]urea]",–,–,–,–,–,238 µg/mL,160 µg/mL,–
–,–,–,–,–,3.13 µg/mL,0.78 µg/mL,3.13 µg/mL,3.13 µg/mL,1.56 µg/mL,"NCCCc1cc(NC(=O)Nc2cc(C(F)(F)F)c(SCCN)cc2SCCN)ccc1Oc1ccc(NCCN)c(C(F)(F)F)c1 [Compound 113, 1-[4-[4-(2-aminoethylamino)-3-(trifluoromethyl)phenoxy]-3-(3-aminopropyl)phenyl]-3-[2,4-bis(2-aminoethylsulfanyl)-5-(trifluoromethyl)phenyl]urea]",–,–,–,–,–,191 µg/mL,142 µg/mL,32 µg/mL
–,–,–,–,–,0.78 µg/mL,1.56 µg/mL,1.56 µg/mL,3.13 µg/mL,0.195 µg/mL,"N=C(N)NCCCCC(=O)Nc1cc(C(F)(F)F)cc(NC(=O)Nc2ccc(Oc3cc(NCCN)cc(C(F)(F)F)c3)cc2)c1SCCN [Compound 106, (4-(2-(2-aminoethylthio)-3-(3-(4-(3-(2-aminoethylamino)-5-(trifluoromethyl)phenoxy)phenyl)ureido)-5-(trifluoromethyl)phenylcarbamoyl)butyl) guanidine]",–,–,–,–,–,61.8 µg/mL,52.6 µg/mL,–
–,–,–,–,–,1.56 µg/mL,1.56 µg/mL,3.13 µg/mL,6.25 µg/mL,0.098 µg/mL,"N=C(N)NCCCC(=O)Nc1cc(C(F)(F)F)cc(NC(=O)Nc2ccc3nc(-c4ccc(NCCCN)cc4)sc3c2)c1SCCN [Compound 110, N-[2-(2-aminoethylsulfanyl)-3-[[2-[4-(3-aminopropylamino)phenyl]-1,3-benzothiazol-6-yl]carbamoylamino]-5-(trifluoromethyl)phenyl]-4-guanidino-butanamide]",–,–,–,–,–,49.9 µg/mL,50.7 µg/mL,–
–,–,–,–,–,3.13 µg/mL,6.25 µg/mL,6.25 µg/mL,12.5 µg/mL,0.78 µg/mL,"N=C(N)NCCCCC(=O)Nc1cc(C(F)(F)F)cc(NC(=O)Nc2ccc(Oc3cc(N)cc(C(F)(F)F)c3)cc2)c1SCCN [Compound 102, (4-(2-(2-aminoethylthio)-3-(3-(4-(3-amino-5-(trifluoromethyl)phenoxy)phenyl)ureido)-5-(trifluoromethyl)phenylcarbamoyl)butyl) guanidine]",–,–,–,–,–,68 µg/mL,36.7 µg/mL,–
